This note sets out measurements from patent publication US5739169A, “Aromatic compounds for inhibiting immune response” (Procept, Incorporated, priority 1996, dated 1998).

The term IC50 denotes the point on the concentration scale where inhibition reaches its midpoint. High values mean a need for much substance, low ones inhibition by little substance.

Values after ≈ are worked out from the molar mass of the structure shown.

The subject of one assay is PBLs. The assay can be described thus: Mixed Lymphocyte Reactions (MLR) Assay. The format is cell-based. The settings on record: Homo sapiens, 3H-thymidine pulse on day 5, harvest 16 hours later. As to the method: Mixed Lymphocyte Reactions (MLR) Assay
Blood samples were drawn from two donors and the lymphocytes were separated out by Ficoll gradient by standard procedures known in the art. The isolated lymphocytes from done 1 were left untreated and the cells from donor 2 where suspended in Hanks Balanced Salt Solution at 10^7 /ml and treated with 50 micrograms/ml mitomycin C for 30 minutes at 37° C.
The PBLs were cultured in RPMI 1640 medium containing 5% human AB serum, glutamine (2 mM), penicillin/streptomycin (50 micrograms/ml / 50 micrograms/ml), sodium pyruvate (1 mM) and HEPES buffer (10 mM). For assay purposes, 10^5 PBLs from each donor were added to each well of a 96-well plate in a total volume of 200 microliters along with various dilutions of test compound.
The cultures were pulsed with 1 microCurie ^3 H-thymidine on day 5 and harvested 16 hours later onto a glass fiber filter. Thymidine incorporation was measured by liquid scintillation counting using a Beta plate counter. The IC50 represents the amount of compound necessary to inhibit 50 % of the thymidine incorporation.
The compound `Nc1cccc(C(=O)c2cccc(Nc3ccccc3C(=O)O)c2)c1` [PRO4919] displayed an IC50 of 5 µg/mL (≈ 15 µM).

The subject of the next assay is human peripheral blood lymphocyte (PBL). Put plainly: cells.
Conditions: not given
It counts as cell-based.
Turning to `Nc1ccc(C(=O)c2ccc(Nc3ccccc3C(=O)O)cc2)cc1` [PRO4708], the IC50 came out at 0.345 µg/mL (≈ 1.04 µM).
The same measure, in the same setting: next, `O=C(O)c1ccccc1Nc1ccc(-c2ccccc2)cc1` [PRO4917]: 0.296 µg/mL (≈ 1.02 µM); `COc1cc(-c2ccc(Nc3ccccc3C(=O)O)c(OC)c2)ccc1N` [PRO3249]: 0.005 µg/mL (≈ 0.0137 µM); `COc1cc(-c2ccc(Nc3ccccc3C(=O)O)c(OC)c2)ccc1NC(C)=O` [PRO4379]: 0.133 µg/mL (≈ 0.327 µM).
The same measure, in the same setting: the figure for `CNc1ccc(-c2ccc(Nc3ccccc3C(=O)O)c(OC)c2)cc1OC` [PRO6370] is 0.01 µg/mL (≈ 0.0264 µM); for `COc1cc(-c2ccc(N(C)C)c(OC)c2)ccc1Nc1ccccc1C(=O)O` [PRO6365] it is 0.194 µg/mL (≈ 0.494 µM); for `COc1cc(-c2ccc(Nc3ccccc3-c3nn[nH]n3)c(OC)c2)ccc1N` [PRO5105] it is greater than 1 µg/mL.
`COc1cc(-c2ccc(Nc3ccccc3C(=O)O)c(OC)c2)ccc1NC(=O)OC(C)(C)C` [PRO4323] had an IC50 of 0.015 µg/mL (≈ 0.0323 µM).
The compound `COC(=O)c1ccccc1Nc1ccc(-c2ccc(N)c(OC)c2)cc1OC` [PRO5021] yielded an IC50 of 0.037 µg/mL (≈ 0.0978 µM).
On the same count and under the same terms, next, `COc1cc(-c2ccc(Nc3ccccc3C(=O)O)c(OC)c2)ccc1Br` [PRO4402]: 0.03 µg/mL (≈ 0.07 µM); `COc1cccc(-c2ccc(Nc3ccccc3C(=O)O)c(OC)c2)c1` [PRO4403]: 0.012 µg/mL (≈ 0.0343 µM).
The compound `CC(=O)Nc1ccc(-c2ccc(Nc3ccccc3C(=O)O)cc2)cc1` [PRO5023] gave an IC50 greater than 1 µg/mL.
On to `Nc1ccc(-c2ccc(Nc3ccccc3C(=O)O)cc2)cc1` [PRO4707], for which the concentration for half-maximal inhibition (IC50) came out at 0.086 µg/mL (≈ 0.283 µM).
Consider `COc1cc(-c2ccc([N+](=O)[O-])c(OC)c2)ccc1Nc1ccccc1-c1nn[nH]n1` [PRO5106], for which the IC50 is greater than 1 µg/mL.

In the next assay the test system is human transformed T cell line, H9. The assay can be described thus: H9 proliferation Assay. The format is cell-based. The settings on record: 3 days culture, 3H-thymidine pulse on day 3, harvest 16 hours later. As to the method: The human transformed T cell line, H9 (ATCC Rockville, Md.), was cultured at 3000/well in RPMI 1640 medium supplemented with 5 % human AB serum, glutamine (2 mM), penicillin/streptomycin (50 U/ml, 50 micrograms/ml), sodium pyruvate (1 mM), HEPES (10 mM), and non-essential amino acids (1X) in a total of 200 microliter/well in a 96 well plate. The H9 cells were cultured with and without various dilutions of test compound for 3 days.
The cells were pulsed on day 3 with 1 microCurie/well of ^3 H-thymidine using a standard procedure known in the art. The cells were then harvested 16 hours later onto glass fiber filters using a TOMTEC cell harvester. Cellular proliferation was assessed by thymidine incorporation and measured by liquid scintillation counting using a Beta plate counter (Pharmacia, Inc., Piscataway, N.J.). The IC 50 represents the amount of compound necessary to inhibit 50% of the thymidine incorporation.
On to `COc1cc(-c2ccc([N+](=O)[O-])c(OC)c2)ccc1Nc1ccccc1C(=O)O` [PRO4636], for which the IC50 stood at 3.2 µg/mL (≈ 8.11 µM).
